According to ChEMBL document CHEMBL1152576, “E-Combretastatin and E-resveratrol structural modifications: antimicrobial and cancer cell growth inhibitory beta-E-nitrostyrenes” (Bioorg Med Chem, 2009):
≈ marks a conversion by molar mass, not a printed value. Calls of active or inactive are those of the source. No cut-off for these calls is given here.

test system: OVCAR-3; experiment: Cytotoxicity against human OVCAR-3 cells after 48 hrs by sulforhodamine B assay; assay type: functional; conditions: not given

With `COc1ccc(/C=C/c2cc(OC)c(OC)c(OC)c2)cc1O` [E-COMBRETASTATIN A-4] as the compound, how does the GI50 read?
The GI50 was “inactive”.

For `O=[N+]([O-])/C=C/c1ccc(OP(=O)([O-])[O-])cc1.[Na+].[Na+]`, which GI50 is on record?
The GI50 was “inactive”.

For `COc1cc(/C=C/[N+](=O)[O-])c(OC)c(OC)c1OC`, which GI50 is on record?
The GI50 was “inactive”.

test system: P388; experiment: Cytotoxicity against mouse P388 cells after 48 hrs by sulforhodamine B assay; assay type: functional; conditions: P388, 48 h, read-out: ED50 (the source's name)

With `COc1ccc(/C=C/c2cc(OC)c(OC)c(OC)c2)cc1O` [E-COMBRETASTATIN A-4] as the compound, how does the EC50 read?
The EC50 was 0.28 µg/mL (≈ 0.885 µM).

With `O=[N+]([O-])/C=C/c1ccc(OP(=O)([O-])[O-])cc1.[Na+].[Na+]` as the compound, how does the EC50 read?
The EC50 was 47.8 µg/mL.

With `COc1cc(/C=C/[N+](=O)[O-])c(OC)c(OC)c1OC` as the compound, how does the EC50 read?
The EC50 was 1.3 µg/mL (≈ 4.83 µM).

test system: Stenotrophomonas maltophilia; experiment: Antimicrobial activity against Stenotrophomonas maltophilia ATCC 13637 assessed clear zone in inhibition per disk by CLSI disk diffusion susceptibility assay; assay type: functional; conditions: not given

For `O=[N+]([O-])/C=C/c1ccc(OP(=O)([O-])[O-])cc1.[Na+].[Na+]`, which MIC is on record?
Its MIC is greater than 100 µg.

With `COc1cc(/C=C/[N+](=O)[O-])c(OC)c(OC)c1OC` as the compound, how does the MIC read?
The MIC was 25 µg.

test system: Candida albicans; experiment: Antimicrobial activity against Candida albicans ATCC 90028 assessed clear zone in inhibition per disk by CLSI disk diffusion susceptibility assay; assay type: functional; conditions: not given

Which MIC does the source give for `O=[N+]([O-])/C=C/c1ccc(OP(=O)([O-])[O-])cc1.[Na+].[Na+]` here?
Its MIC is greater than 100 µg.

For `COc1cc(/C=C/[N+](=O)[O-])c(OC)c(OC)c1OC`, which MIC is on record?
The MIC was 0.78 µg.

test system: Streptococcus pneumoniae; experiment: Antimicrobial activity against Streptococcus pneumoniae ATCC 6303 assessed clear zone in inhibition per disk by CLSI disk diffusion susceptibility assay; assay type: functional; conditions: not given

With `O=[N+]([O-])/C=C/c1ccc(OP(=O)([O-])[O-])cc1.[Na+].[Na+]` as the compound, how does the MIC read?
Its MIC is greater than 100 µg.

With `COc1cc(/C=C/[N+](=O)[O-])c(OC)c(OC)c1OC` as the compound, how does the MIC read?
The MIC was 6.25 µg.

test system: MCF7; experiment: Cytotoxicity against human MCF7 cells after 48 hrs by sulforhodamine B assay; assay type: functional; conditions: not given

For `COc1ccc(/C=C/c2cc(OC)c(OC)c(OC)c2)cc1O` [E-COMBRETASTATIN A-4], which GI50 is on record?
Its GI50 is “inactive”.

With `COc1cc(/C=C/[N+](=O)[O-])c(OC)c(OC)c1OC` as the compound, how does the GI50 read?
The GI50 was “inactive”.

same assay, conditions: MCF7, 48 h

Which GI50 does the source give for `O=[N+]([O-])/C=C/c1ccc(OP(=O)([O-])[O-])cc1.[Na+].[Na+]` here?
Its GI50 is greater than 10 µg/mL.

test system: Escherichia coli; experiment: Antimicrobial activity against Escherichia coli ATCC 25922 assessed clear zone in inhibition per disk by CLSI disk diffusion susceptibility assay; assay type: functional; conditions: not given

Which MIC does the source give for `O=[N+]([O-])/C=C/c1ccc(OP(=O)([O-])[O-])cc1.[Na+].[Na+]` here?
Its MIC is greater than 100 µg.

With `COc1cc(/C=C/[N+](=O)[O-])c(OC)c(OC)c1OC` as the compound, how does the MIC read?
The MIC was 12.5 µg.

test system: Enterococcus faecalis; experiment: Antimicrobial activity against Enterococcus faecalis ATCC 29212 assessed clear zone in inhibition per disk by CLSI disk diffusion susceptibility assay; assay type: functional; conditions: not given

For `O=[N+]([O-])/C=C/c1ccc(OP(=O)([O-])[O-])cc1.[Na+].[Na+]`, which MIC is on record?
Its MIC is greater than 100 µg.

With `COc1cc(/C=C/[N+](=O)[O-])c(OC)c(OC)c1OC` as the compound, how does the MIC read?
Its MIC is 3.12 µg.

test system: SK-MEL-5; experiment: Cytotoxicity against human SK-MEL-5 cells after 48 hrs by sulforhodamine B assay; assay type: functional; conditions: not given

With `COc1ccc(/C=C/c2cc(OC)c(OC)c(OC)c2)cc1O` [E-COMBRETASTATIN A-4] as the compound, how does the GI50 read?
The GI50 was “inactive”.

For `O=[N+]([O-])/C=C/c1ccc(OP(=O)([O-])[O-])cc1.[Na+].[Na+]`, which GI50 is on record?
The GI50 was “inactive”.

For `COc1cc(/C=C/[N+](=O)[O-])c(OC)c(OC)c1OC`, which GI50 is on record?
Its GI50 is “inactive”.

test system: DU-145; experiment: Cytotoxicity against human DU145 cells after 48 hrs by sulforhodamine B assay; assay type: functional; conditions: not given

With `COc1cc(/C=C/[N+](=O)[O-])c(OC)c(OC)c1OC` as the compound, how does the GI50 read?
Its GI50 is “inactive”.

same assay, conditions: DU-145, 48 h

With `COc1ccc(/C=C/c2cc(OC)c(OC)c(OC)c2)cc1O` [E-COMBRETASTATIN A-4] as the compound, how does the GI50 read?
Its GI50 is 0.037 µg/mL (≈ 0.117 µM).

For `O=[N+]([O-])/C=C/c1ccc(OP(=O)([O-])[O-])cc1.[Na+].[Na+]`, which GI50 is on record?
The GI50 was 57.8 µg/mL.

test system: SF-295; experiment: Cytotoxicity against human SF295 cells after 48 hrs by sulforhodamine B assay; assay type: functional; conditions: not given

Which GI50 does the source give for `COc1ccc(/C=C/c2cc(OC)c(OC)c(OC)c2)cc1O` [E-COMBRETASTATIN A-4] here?
Its GI50 is “inactive”.

Which GI50 does the source give for `O=[N+]([O-])/C=C/c1ccc(OP(=O)([O-])[O-])cc1.[Na+].[Na+]` here?
The GI50 was “inactive”.

Which GI50 does the source give for `COc1cc(/C=C/[N+](=O)[O-])c(OC)c(OC)c1OC` here?
Its GI50 is “inactive”.

test system: Micrococcus luteus; experiment: Antimicrobial activity against Micrococcus luteus Presque Isle 456 assessed clear zone in inhibition per disk by CLSI disk diffusion susceptibility assay; assay type: functional; conditions: not given

For `O=[N+]([O-])/C=C/c1ccc(OP(=O)([O-])[O-])cc1.[Na+].[Na+]`, which MIC is on record?
The MIC was greater than 100 µg.

For `COc1cc(/C=C/[N+](=O)[O-])c(OC)c(OC)c1OC`, which MIC is on record?
Its MIC is 1.56 µg.

test system: Cryptococcus neoformans; experiment: Antimicrobial activity against Cryptococcus neoformans ATCC 90112 assessed clear zone in inhibition per disk by CLSI disk diffusion susceptibility assay; assay type: functional; conditions: not given

Which MIC does the source give for `O=[N+]([O-])/C=C/c1ccc(OP(=O)([O-])[O-])cc1.[Na+].[Na+]` here?
The MIC was greater than 100 µg.

For `COc1cc(/C=C/[N+](=O)[O-])c(OC)c(OC)c1OC`, which MIC is on record?
Its MIC is 0.78 µg.

test system: BXPC-3; experiment: Cytotoxicity against human BxPC3 cells after 48 hrs by sulforhodamine B assay; assay type: functional; conditions: not given

For `COc1cc(/C=C/[N+](=O)[O-])c(OC)c(OC)c1OC`, which GI50 is on record?
Its GI50 is “inactive”.

same assay, conditions: BXPC-3, 48 h

For `COc1ccc(/C=C/c2cc(OC)c(OC)c(OC)c2)cc1O` [E-COMBRETASTATIN A-4], which GI50 is on record?
Its GI50 is 3.9 µg/mL (≈ 12.3 µM).

Which GI50 does the source give for `O=[N+]([O-])/C=C/c1ccc(OP(=O)([O-])[O-])cc1.[Na+].[Na+]` here?
The GI50 was greater than 10 µg/mL.

test system: not listed separately; experiment: Inhibition of tubulin polymerization; conditions: not given

With `COc1ccc(/C=C/c2cc(OC)c(OC)c(OC)c2)cc1O` [E-COMBRETASTATIN A-4] as the compound, how does the IC50 read?
Its IC50 is 33 µM.

For `O=[N+]([O-])/C=C/c1ccc(OP(=O)([O-])[O-])cc1.[Na+].[Na+]`, which IC50 is on record?
Its IC50 is greater than 40 µM.

For `COc1cc(/C=C/[N+](=O)[O-])c(OC)c(OC)c1OC`, which IC50 is on record?
Its IC50 is 5.4 µM.

test system: SF-268; experiment: Cytotoxicity against human SF268 cells after 48 hrs by sulforhodamine B assay; assay type: functional; conditions: not given

For `COc1ccc(/C=C/c2cc(OC)c(OC)c(OC)c2)cc1O` [E-COMBRETASTATIN A-4], which GI50 is on record?
Its GI50 is “inactive”.

For `COc1cc(/C=C/[N+](=O)[O-])c(OC)c(OC)c1OC`, which GI50 is on record?
The GI50 was “inactive”.

same assay, conditions: SF-268, 48 h

With `O=[N+]([O-])/C=C/c1ccc(OP(=O)([O-])[O-])cc1.[Na+].[Na+]` as the compound, how does the GI50 read?
Its GI50 is greater than 10 µg/mL.

test system: KM-20L2; experiment: Cytotoxicity against human KM20L2 cells after 48 hrs by sulforhodamine B assay; assay type: functional; conditions: not given

With `COc1ccc(/C=C/c2cc(OC)c(OC)c(OC)c2)cc1O` [E-COMBRETASTATIN A-4] as the compound, how does the GI50 read?
The GI50 was “inactive”.

With `COc1cc(/C=C/[N+](=O)[O-])c(OC)c(OC)c1OC` as the compound, how does the GI50 read?
The GI50 was “inactive”.

same assay, conditions: KM-20L2, 48 h

For `O=[N+]([O-])/C=C/c1ccc(OP(=O)([O-])[O-])cc1.[Na+].[Na+]`, which GI50 is on record?
The GI50 was greater than 10 µg/mL.

test system: Neisseria gonorrhoeae; experiment: Antimicrobial activity against Neisseria gonorrhoeae ATCC 49226 assessed clear zone of inhibition measured per disk by CLSI disk diffusion susceptibility assay; assay type: functional; conditions: not given

With `O=[N+]([O-])/C=C/c1ccc(OP(=O)([O-])[O-])cc1.[Na+].[Na+]` as the compound, how does the MIC read?
Its MIC is greater than 100 µg.

Which MIC does the source give for `COc1cc(/C=C/[N+](=O)[O-])c(OC)c(OC)c1OC` here?
Its MIC is less than 0.78 µg.

test system: NCI-H460; experiment: Cytotoxicity against human NCI-H460 cells after 48 hrs by sulforhodamine B assay; assay type: functional; conditions: not given

For `COc1cc(/C=C/[N+](=O)[O-])c(OC)c(OC)c1OC`, which GI50 is on record?
The GI50 was “inactive”.

same assay, conditions: NCI-H460, 48 h

For `COc1ccc(/C=C/c2cc(OC)c(OC)c(OC)c2)cc1O` [E-COMBRETASTATIN A-4], which GI50 is on record?
The GI50 was 0.038 µg/mL (≈ 0.12 µM).

Which GI50 does the source give for `O=[N+]([O-])/C=C/c1ccc(OP(=O)([O-])[O-])cc1.[Na+].[Na+]` here?
Its GI50 is greater than 10 µg/mL.

test system: A498; experiment: Cytotoxicity against human A498 cells after 48 hrs by sulforhodamine B assay; assay type: functional; conditions: not given

With `COc1ccc(/C=C/c2cc(OC)c(OC)c(OC)c2)cc1O` [E-COMBRETASTATIN A-4] as the compound, how does the GI50 read?
The GI50 was “inactive”.

Which GI50 does the source give for `O=[N+]([O-])/C=C/c1ccc(OP(=O)([O-])[O-])cc1.[Na+].[Na+]` here?
Its GI50 is “inactive”.

For `COc1cc(/C=C/[N+](=O)[O-])c(OC)c(OC)c1OC`, which GI50 is on record?
Its GI50 is “inactive”.

test system: Staphylococcus aureus; experiment: Antimicrobial activity against Staphylococcus aureus ATCC 29213 assessed clear zone in inhibition per disk by CLSI disk diffusion susceptibility assay; assay type: functional; conditions: not given

With `O=[N+]([O-])/C=C/c1ccc(OP(=O)([O-])[O-])cc1.[Na+].[Na+]` as the compound, how does the MIC read?
The MIC was greater than 100 µg.

For `COc1cc(/C=C/[N+](=O)[O-])c(OC)c(OC)c1OC`, which MIC is on record?
The MIC was less than 0.78 µg.

test system: Enterobacter cloacae; experiment: Antimicrobial activity against Enterobacter cloacae ATCC 13047 assessed clear zone in inhibition per disk by CLSI disk diffusion susceptibility assay; assay type: functional; conditions: not given

With `O=[N+]([O-])/C=C/c1ccc(OP(=O)([O-])[O-])cc1.[Na+].[Na+]` as the compound, how does the MIC read?
Its MIC is greater than 100 µg.

For `COc1cc(/C=C/[N+](=O)[O-])c(OC)c(OC)c1OC`, which MIC is on record?
Its MIC is greater than 100 µg.
